From PMC11167047 (Cell Death Discovery, 2024)
Like-named read-outs stand apart in the source and are kept apart here.

Key:
Ramos = assay: AlamarBlue viability assay; type: cell-based, human; conditions: Homo sapiens, Ramos, 24 h, read-out: IC50 (Ramos)
[1] = tested on: retinoblastoma (RB) protein phosphorylation; assay: immunoblotting of phospho-RB in Ramos cells; type: cell-based, human; conditions: up to 24 h
Protocol: (§1) Cells were seeded at a density of 2 × 10^6 cells, treated as specified and harvested by centrifugation at 3000 rpm for 5 min, followed by freezing in liquid nitrogen. The cell pellets were thawed on ice and quick-frozen and defrozen in liquid nitrogen for three times, then lysed on ice in lysis buffer (20 mM Tris-HCl, 150 mM NaCl, 1% v/v Triton X-100, 0.5 mM EDTA, 10 mM NaF, 2.5 mM Na4P2O7, protease inhibitor (Sigma, #P2714)) for 30 min, accompanied by vortexing. Subsequently, centrifugation 13,300 rpm for 15 min purified cell lysates from cell debris. The supernatant was transferred to a new tube and the protein concentration was determined by Bradford assay. The samples were diluted with sample buffer. SDS-Page and Western Blot were conducted in accordance with standard workflows. […] The antibody baths were stored at 4 °C and re-used.
(§2) The density of the individual protein band was determined using Image Studio^TM Lite Version 5.2. The density of each protein was divided by the average of all bands of this protein. The ratios of the protein of interest were normalized to the ratio of the respective loading control. To determine the fold change, each normalized ratio was divided by the normalized band of the control line (untreated cells). Fold change is 1 for the control line, n ≥ 2. The results are shown as mean ± standard deviation and were visualized with GraphPad Prism 7.

[2] = tested on: RNA polymerase II phosphorylation at Ser2; assay: immunoblotting of p-Ser2 RNA polymerase II in Ramos cells; type: cell-based, human; conditions: 0.1 and 1 µM (R547 1 µM), 4-24 h
Protocol: as §1, §2

Ramos cells [3] = assay: cell cycle analysis (Nicoletti assay); type: cell-based, human; conditions: 24 h, sublethal dose, with QVD
Protocol: DNA content during cell cycle and hypodiploid apoptotic nuclei were measured by the method of Nicoletti et al.. […] Hypodiploid nuclei were measured in logarithmic mode for apoptosis determination. Flow-cytometry analysis was performed on an LSRFortessa^TM (Becton, Dickinson, Heidelberg, Germany) and data analysis was performed using FlowJo_V10 (BD Biosciences).

Ramos cells [4] = assay: BrdU cell proliferation assay; type: cell-based, human; conditions: 24 h, non-lethal doses
Protocol: The Bromodeoxyuridine (BrdU) Cell Proliferation kit from Millipore (#QIA58-1000TEST) was used to measure proliferation of cells. The manufacturer protocol has been optimized as described in the following. 1 × 10^4 cells per well were seeded in a 96-well plate. The cells were pre-incubated with the compounds of interest for 1 h. Following this, the BrdU solution was added and the cells were incubated for a total of 24 h. BrdU is an analog of the nucleoside thymidine and is incorporated into the DNA of dividing cells during replication. Culture medium was removed and cells were fixed and denatured with Fixative/Denaturing solution for 30 min at room temperature. Since suspension cells were used, they had to be centrifuged at 1200 rpm for 5 min after each following step. After, the anti-BrdU-antibody was incubated for 1 h at RT. Cells were washed three times with washing buffer. The secondary antibody, which is coupled to HRP (horseradish peroxidase) was incubated for 30 min at RT. Again, cells were washed three times with washing buffer.
Then, the substrate solution was added, that contained TMB (3,3’,5,5’-Tetramethylbenzidine), which is oxidized by HRP. Oxidation of TMB causes a color change from colorless to blue. The intensity of color change is correlated with the number of bound peroxidases, which depends on the quantity of primary antibodies and therefore on the content of the incorporated BrdU. If the cells are not proliferating, no BrdU is incorporated, resulting in a weak signal.
After 15 min incubation time the stopping reagent was added, causing a pH change and resulting in a color change from blue to yellow. The colored reaction product was quantified at 450 nm using a spectrophotometer. For all measurements, three technical replicates were made. The control was set to 100% proliferation, and the treated cells were normalized to the control. The results were visualized using GraphPad Prism 7.

cyclin B1 expression = assay: immunoblotting of cyclin B1 in Ramos cells; type: cell-based, human; conditions: 24 h
Protocol: as §1, §2

CDK1 = conditions: read-out: Enzymatic IC50 values, CDK1, cited from earlier work
CDK4 = tested on: CDK4; set-up: method as in Selleckchem.com; conditions: ref Selleckchem.com; read-out: Enzymatic IC50 values, CDK4; cited from earlier work
CDK5 = conditions: read-out: Enzymatic IC50 values, CDK5, cited from earlier work
CDK9 = conditions: read-out: Enzymatic IC50 values, CDK9, cited from earlier work
CDK2 = conditions: read-out: Enzymatic IC50 values, CDK2, cited from earlier work
CDK6 = tested on: CDK6; set-up: method as in Selleckchem.com; conditions: ref Selleckchem.com; read-out: Enzymatic IC50 values, CDK6; cited from earlier work

COc1ccc(F)c(F)c1C(=O)c1cnc(NC2CCN(S(C)(=O)=O)CC2)nc1N [R547, [4-amino-2-(1-methanesulfonylpi peridin-4-ylamino)pyrimidin-5-yl](2,3-difluoro-6-methoxyphenyl) methanone, reference compound]
IC50 (Ramos): 1800 nM | phosphorylation of RB at p-Thr821 ([1]; 0.1 and 1 µM (R547 1 µM)): loss of phosphorylation | phosphorylation of RB at p-Ser249 and p-Thr252 ([1]; 0.1 or 1 µM (R547 1 µM)): completely abrogated the phosphorylation of RB within 4 h | phosphorylation of RNA polymerase II at Ser2 [2]: less pronounced | effect on cell cycle phases (Ramos cells [3]): pronounced G2 arrest | proliferation (BrdU incorporation) (Ramos cells [4]): […] | expression of cyclin B1 (cyclin B1 expression): rather increased the expression of cyclin B1 | IC50 (CDK1; ref Selleckchem.com): 2 nM | IC50 (CDK4): […]

CC(C)(C)c1cnc(CSc2cnc(NC(=O)C3CCNCC3)s2)o1 [SNS-032]
IC50 (Ramos; cytotoxicity): 710 nM | IC50 (CDK5; ref Selleckchem.com): […] | IC50 (CDK9; ref Selleckchem.com): […]

CCc1cnn2c(NCc3ccc[n+]([O-])c3)cc(N3CCCC[C@H]3CCO)nc12 [dinaciclib]
proliferation (BrdU incorporation) (Ramos cells [4]): substantial decrease in proliferation

CN1CC[C@H](c2c(O)cc(O)c3c(=O)cc(-c4ccccc4Cl)oc23)[C@H](O)C1 [flavopiridol]
IC50 (Ramos; cytotoxicity): 140 nM | IC50 (CDK1; ref Selleckchem.com): […] | IC50 (CDK2; ref Selleckchem.com): […] | IC50 (CDK4): […] | IC50 (CDK6): […] | IC50 (CDK9; ref Selleckchem.com): […]

COc1ccnc2[nH]cc(-c3ccnc(N)n3)c12 [meriolin 3]
IC50 (Ramos; cytotoxicity): 130 nM | proliferation (BrdU incorporation) (Ramos cells [4]): substantial decrease in proliferation | IC50 (CDK1; ref [10, 12] of the supplement): 170 nM | IC50 (CDK2; ref [10, 12] of the supplement): 11 nM | IC50 (CDK5; ref [10, 12] of the supplement): 170 nM | IC50 (CDK9; ref [10, 12] of the supplement): 6 nM

CN1C/C=C/CCOc2cccc(c2)-c2ccnc(n2)Nc2cccc(c2)C1 [zotiraciclib]
IC50 (Ramos; cytotoxicity): 170 nM | IC50 (CDK1; ref Selleckchem.com): 9 nM | IC50 (CDK2; ref Selleckchem.com): 5 nM | IC50 (CDK9; ref Selleckchem.com): 3 nM
